Test results published in patent publication US9506013B2 (priority 2010, dated 2016).
Values joined by “and” are separate entries in the source; they are usually repeats but may differ in a detail not shown here. Equal entries are not always repeated.

Experiments:
[1] = type: physicochemical
[2] = test system: Pseudomonas aeruginosa and Staphylococcus aureas; type: cell-based
[3] = test system: Pseudomonas aeruginosa; type: cell-based
[4] = test system: Staphylococcus aureas; type: cell-based

| Molecule | % Separation 1 h [1] | % Separation 24 h [1] | Adjuvant 1 h, emulsion stability, mL separation [mL] | Anionic 1 h, emulsion stability, mL separation [mL] | Nonionic 1 h, emulsion stability, mL separation [mL] | Adjuvant 24 h, emulsion stability, mL separation [mL] | Anionic 24 h, emulsion stability, mL separation [mL] | Nonionic 24 h, emulsion stability, mL separation [mL] | Overall Rating [2] | % Kill, 400 ppm [3] [%] | % Kill, DI water [3] [%] | % Kill, 400 ppm [4] [%] | % Kill, DI water [4] [%] |
| --- | --- | --- | --- | --- | --- | --- | --- | --- | --- | --- | --- | --- | --- |
| CCC(CCCCCCCCC(=O)OCCOC)S(=O)(=O)[O-].[Na+] (centres unmarked) [C12-33, C12 eFAME Sulfonate] | 3.2 C and 3.9 C | 4 C and 4.1 C | 0 | 0 | 0.25 | 0 | 0 | 0.25 |  |  |  |  |  |
| C12 6EO eFAME Sulfonate [C12-10] | 4 C and 3.8 C | 4.1 C and 4 C | 0 | 0 |  | 0 | 0 | 0.25 |  |  |  |  |  |
| COCCOC(=O)CCCCCCCCC(CCCCCCCC(=O)OCCOC)S(=O)(=O)[O-].[Na+] (centres unmarked) [Mix-61, C18 eFAME Sulfonate] | 3.8 C and 3.7 C | 4 C and 3.9 C |  |  |  |  |  |  |  |  |  |  |  |
| C10 6EO eFAME [C10-9] |  |  |  |  |  |  |  |  | good | 29.1 | 37.2 | 23.4 | 38.4 |
| C10 24EO eFAME [C10-11] |  |  |  |  |  |  |  |  | good | 21.3 | 28.9 | 30.9 | 42.5 |
| C12 6EO eFAME [C12-9] |  |  |  |  |  |  |  |  | good | 23.2 | 32.6 | 3.2 | 36.2 |
| C10 24EO eFAME Sulfonate [C10-30] | 3.8 C and 2.8 C | 4 C and 3 C | 0 | 0 | 0.25 | 0 | 0 | 0.25 |  |  |  |  |  |
| C12 27EO eFAME [C12-11] |  |  |  |  |  |  |  |  | good | 30.1 | 34.9 | 36.2 | 42.7 |
| C12 27EO eFAME Sulfonate [C12-32] | 3 C and 2.9 C | 3.2 C | 0 | 0 | 0.5 | 0 | 0 | 0.5 |  |  |  |  |  |
